Test results: US6399647B2, “Amide derivatives for antiangiogenic and/or antitumorigenic use” (Vanderbilt University, priority 1999, dated 2002)
Read-outs that look alike come from different tables or passages of the source.

How the values were obtained:
[1] = tested on: carrageenan-induced rat foot pad edema; assay: Rat foot pad edema model (carrageenan); assay type: in vivo; conditions: 2 mg/kg orally
Description: Rats were injected with carrageenan, which triggers a rapid edema (swelling) within 3 hours that can be quantitatively measured by volume displacement.
In these experiments, the carrageenan that was injected was in 0.1 mL of aqueous saline so that 0.1 mL volume increase was due to the injection alone.
More specifically, male Sprague-Dawley rats (150 g) received a subplantar injection of carrageenan (0.1 mL of a 1% suspension of carrageenan in sterile aqueous saline) into the right hind footpad while mildly anesthetized with methoxyflurane. […] The ipsilateral footpad volume (mL) was measured with a water displacement plethysmometer at time=3 hours post-injection and compared to the time=0 pre-injection paw volume for edema calculations.

[2] = tested on: HCA-7 (human colon adenocarcinoma, colony 29) cells; assay: Human tumor xenograft assay in nude mice; assay type: in vivo; conditions: HCA-7, 5 mg/kg intraperitoneally 3 times per week
Description: Tumor volume was determined by external measurement with an electronic caliper.

[3] = tested on: tumors; conditions: background b24; cited from earlier work
[4] = tested on: COX-1; conditions: background b24; cited from earlier work
[5] = target: T1, COX-2 (Homo sapiens, UniProt P35354); conditions: background b24; cited from earlier work
T1 sequence (P35354 18-604): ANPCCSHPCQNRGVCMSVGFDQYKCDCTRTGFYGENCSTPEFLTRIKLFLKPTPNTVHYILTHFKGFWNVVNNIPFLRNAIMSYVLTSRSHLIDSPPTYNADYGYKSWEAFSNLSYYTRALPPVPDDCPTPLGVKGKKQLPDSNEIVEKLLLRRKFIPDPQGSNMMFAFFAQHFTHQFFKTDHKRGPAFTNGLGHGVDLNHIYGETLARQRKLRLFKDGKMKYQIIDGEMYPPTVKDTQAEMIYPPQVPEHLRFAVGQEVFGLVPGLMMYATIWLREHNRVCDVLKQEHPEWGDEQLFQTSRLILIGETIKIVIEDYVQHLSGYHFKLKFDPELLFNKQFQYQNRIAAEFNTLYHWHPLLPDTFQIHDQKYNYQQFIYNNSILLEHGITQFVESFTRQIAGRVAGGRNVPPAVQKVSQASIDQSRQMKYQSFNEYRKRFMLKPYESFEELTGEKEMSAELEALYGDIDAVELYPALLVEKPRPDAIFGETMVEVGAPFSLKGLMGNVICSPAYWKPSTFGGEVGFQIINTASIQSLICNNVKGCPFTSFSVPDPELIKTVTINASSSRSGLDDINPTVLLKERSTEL

[6] = target: T2, ovine COX-1 (Ovis aries, UniProt P05979); assay: TLC assay, inhibition of purified ovine COX-1; assay type: biochemical; conditions: ovine COX-1 (44 nM), inhibitor 20 min, then 1-14C-AA (50 μM) at 37° C. for 30 sec, duplicate
T2 construct: COX-1 was purified from ram seminal vesicles obtained from Oxford Biomedical Research, Inc; tissue Oxford Biomedical Research, Inc. (Oxford, Michigan) (supplier of the tissue); host or cells: ram seminal vesicles
T2 sequence (P05979 25-600): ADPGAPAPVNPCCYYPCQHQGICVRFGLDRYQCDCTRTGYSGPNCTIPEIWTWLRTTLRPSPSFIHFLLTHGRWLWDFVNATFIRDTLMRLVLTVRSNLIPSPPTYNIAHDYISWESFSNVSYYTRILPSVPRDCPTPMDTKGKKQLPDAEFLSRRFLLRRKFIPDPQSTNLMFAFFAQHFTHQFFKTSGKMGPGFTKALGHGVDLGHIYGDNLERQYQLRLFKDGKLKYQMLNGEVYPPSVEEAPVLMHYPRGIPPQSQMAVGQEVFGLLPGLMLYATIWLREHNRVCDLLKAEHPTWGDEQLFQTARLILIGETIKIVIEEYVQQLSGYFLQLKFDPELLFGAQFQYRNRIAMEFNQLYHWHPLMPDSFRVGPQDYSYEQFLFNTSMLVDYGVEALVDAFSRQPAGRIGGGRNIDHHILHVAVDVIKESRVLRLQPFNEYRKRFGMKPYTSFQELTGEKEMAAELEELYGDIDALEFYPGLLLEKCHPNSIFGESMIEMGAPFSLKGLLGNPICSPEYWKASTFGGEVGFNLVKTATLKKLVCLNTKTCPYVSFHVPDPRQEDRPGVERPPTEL

[7] = target: T1, COX-2; assay: TLC assay, inhibition of purified human COX-2; assay type: biochemical; parameters: made in house; host or cells: insect cells (baculovirus vectors)

Compound: COc1ccc2c(c1)c(CC(=O)O)c(C)n2C(=O)c1ccc(Cl)cc1 [Indomethacin, indomethacin, reference compound]
- effect on swelling / inflammation (in words) [1]: comparable reduction in inflammation

Compound: Indomethacin-N-(2-phenethyl) amide [Compound 11]
- tumor growth (in words) [2]: significantly inhibited tumor growth
- tumor vol. cm^3 ([2]; day of explant 22): 0.10 cm^3
- tumor vol. cm^3 ([2]; day of explant 25): 0.11 cm^3
- tumor vol. cm^3 ([2]; day of explant 27): 0.13 cm^3
- tumor vol. cm^3 ([2]; day of explant 29): 0.14 cm^3
- tumor vol. cm^3 ([2]; day of explant 31): 0.17 cm^3

Compound: CSc1ccc(/C=C2/C(C)=C(CC(=O)O)c3cc(F)ccc32)cc1 [sulindac sulfide]
- inhibition of tumors (in words) [3]: exhibits inhibition of tumors
- more potent inhibitor against COX-1 than COX-2 [4]: 40 fold

Compound: COc1ccc2c(c1)c(CC(=O)Nc1ccc(NC(C)=O)cc1)c(C)n2C(=O)c1ccc(Cl)cc1 [Compound 14, Indomethacin-N-(4-acetamidophenyl) amide]
- effect on swelling / inflammation (in words) [1]: dramatic decrease in swelling

Compound: CC1=C(CC(=O)O)c2cc(F)ccc2/C1=C\c1ccc(S(C)(=O)=O)cc1 [sulindac sulfone]
- inhibition of tumors (in words) [3]: exhibits inhibition of tumors
- COX-2 inhibition (in words) [5]: does not inhibit
- COX-1 inhibition (in words) [4]: does not inhibit

Compound: COc1ccc2c(c1)c(CC(=O)N(C)CCc1ccccc1)c(C)n2C(=O)c1ccc(Cl)cc1 [Compound 9, lndomethacin-N-methylphenethyl amide]
- IC50 [6]: > 66 µM

Compound: COc1ccc2c(c1)c(CC(=O)Nc1cccnc1)c(C)n2C(=O)c1ccc(Cl)cc1 [Compound 20, Indomethacin-N-(3-pyridyl) amide]
- COX-2 inhibition (in words) [7]: potent and selective COX-2 inhibition

Compound: Indomethacin-N-2-(2-L-methoxycarbonylethyl) amide [Compound 25]
- IC50 ([7]; human COX-2 (66 nM), inhibitor 20 min, then 1-14C-AA (50 μM) at 37° C. for 30 sec, duplicate): 0.4 µM
